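Values below derive from 48-hour exposures of cells grown in 96-well plates, with endpoints linearly interpolated between the two concentrations bracketing the appropriate inhibition level. GI50 marks 50% less growth. TGI: total growth inhibition.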
How the values were obtained:
Assay in all cases: NCI anticancer screen, dose series, 48 h
[1] = system: CCRF-CEM leukemia
[2] = system: DU-145 prostate
[3] = system: EKVX NSCLC
[4] = system: HS 578T breast
[5] = system: NCI-H226 lung
[6] = system: NCI-H460 lung
[7] = system: OVCAR-3 ovarian
[8] = system: OVCAR-5 ovarian
[9] = system: SW-620 colon
[10] = system: UO-31 renal

Compound: CN1CCN(Cc2ccc(NC(=O)c3cncc(C#Cc4cncc5ncccc45)c3)cc2C(F)(F)F)CC1
- GI50 [1]: 3.27 µM
- TGI [1]: 34.8 µM
- GI50 [2]: 4.64 µM
- TGI [2]: 16.8 µM
- GI50 [3]: 3.91 µM
- TGI [3]: 16.8 µM
- GI50 [4]: 1.36 µM
- TGI [4]: 7.93 µM
- GI50 [5]: 0.467 µM
- TGI [5]: 11.8 µM
- GI50 [6]: 2.5 µM
- TGI [6]: 11.8 µM
- GI50 [7]: 6.32 µM
- TGI [7]: 19.2 µM
- GI50 [8]: 1.8 µM
- TGI [8]: 14 µM
- GI50 [9]: 1.83 µM
- TGI [9]: 10.4 µM
- GI50 [10]: 1.25 µM
- TGI [10]: 6.35 µM

Compound: O=C(Nc1cccc(Oc2nnc(Cl)c3ccccc23)c1)Nc1ccc(Cl)c(C(F)(F)F)c1
- GI50 [1]: 0.208 µM
- TGI [1]: 17.5 µM
- GI50 [2]: 1.27 µM
- TGI [2]: 4.08 µM
- GI50 [3]: 0.646 µM
- TGI [3]: 6.49 µM
- GI50 [4]: 1.72 µM
- TGI [4]: 8.18 µM
- GI50 [5]: 2.14 µM
- TGI [5]: 7.2 µM
- GI50 [6]: 0.898 µM
- TGI [6]: 3.44 µM
- GI50 [7]: 0.773 µM
- TGI [7]: 4.46 µM
- GI50 [8]: 1.24 µM
- TGI [8]: 4.26 µM
- GI50 [9]: 1.92 µM
- TGI [9]: 4.9 µM
- GI50 [10]: 0.176 µM
- TGI [10]: 4.19 µM

Compound: O=c1cc(N2CCNCC2)oc2c(-c3ccccc3)cccc12
- GI50 [1]: 25.5 µM
- TGI [1]: 69.5 µM
- GI50 [2]: 59 µM
- TGI [2]: > 100 µM
- GI50 [3]: 19.8 µM
- TGI [3]: > 100 µM
- GI50 [4]: 9.75 µM
- TGI [4]: > 100 µM
- GI50 [5]: > 100 µM
- TGI [5]: > 100 µM
- GI50 [6]: 48.7 µM
- TGI [6]: > 100 µM
- GI50 [7]: 24.6 µM
- TGI [7]: > 100 µM
- GI50 [8]: > 100 µM
- TGI [8]: > 100 µM
- GI50 [9]: 82.9 µM
- TGI [9]: > 100 µM
- GI50 [10]: 24 µM
- TGI [10]: > 100 µM

Compound: C/C1=C/C2=CC(C)C[C@@H]2C(=O)[C@]2(C)C(=O)CC(C)(C)[C@H]2CC1=O (stereo partly specified)
- TGI [1]: > 50 µM
- TGI [2]: > 50 µM
- TGI [3]: > 50 µM
- TGI [4]: > 50 µM
- TGI [5]: > 50 µM
- TGI [6]: > 50 µM
- TGI [7]: > 50 µM
- TGI [8]: > 50 µM
- TGI [9]: > 50 µM
- TGI [10]: > 50 µM

Compound: N#Cc1ccc(N2Cc3ccccc3OC3=C2C(=O)c2c(O)ccc(O)c2C3=O)cc1
- GI50 [1]: 0.0556 µM
- TGI [1]: 0.391 µM
- GI50 [2]: 0.307 µM
- TGI [2]: 0.919 µM
- GI50 [3]: 0.818 µM
- TGI [3]: 4.17 µM
- GI50 [4]: 1.16 µM
- TGI [4]: 7.07 µM
- GI50 [5]: 0.282 µM
- TGI [5]: 1.13 µM
- GI50 [6]: 0.897 µM
- TGI [6]: 4.23 µM
- GI50 [7]: 0.153 µM
- TGI [7]: 0.433 µM
- GI50 [8]: 0.437 µM
- TGI [8]: 1.58 µM
- GI50 [9]: 0.0906 µM
- TGI [9]: 0.306 µM
- GI50 [10]: 0.166 µM
- TGI [10]: 0.357 µM

Compound: O=C(CN1CCN(c2ccc(Cl)cc2)CC1)N1CCN(c2nnc(-c3ccc(Cl)cc3)c(-c3ccc(Cl)cc3)n2)CC1
- GI50 [1]: 16.5 µM
- TGI [1]: 73.9 µM
- GI50 [2]: 80 µM
- TGI [2]: > 100 µM
- GI50 [3]: 21.5 µM
- TGI [3]: > 100 µM
- GI50 [4]: 24 µM
- TGI [4]: > 100 µM
- GI50 [5]: 45.7 µM
- TGI [5]: > 100 µM
- GI50 [6]: > 100 µM
- TGI [6]: > 100 µM
- GI50 [7]: 48.3 µM
- TGI [7]: > 100 µM
- GI50 [8]: > 100 µM
- TGI [8]: > 100 µM
- GI50 [9]: > 100 µM
- TGI [9]: > 100 µM
- GI50 [10]: 20.3 µM
- TGI [10]: > 100 µM

Compound: CCN1C(=O)NC(=O)C(C)(N2C(=O)c3c(F)c(F)c(F)c(F)c3C2=O)C1=O (stereo unspecified)
- GI50 [1]: 1.89 µM
- TGI [1]: 4.54 µM
- GI50 [2]: 3.13 µM
- TGI [2]: 11.6 µM
- GI50 [3]: 5.76 µM
- TGI [3]: 18 µM
- GI50 [4]: 3.95 µM
- TGI [4]: 25.1 µM
- GI50 [5]: 9.58 µM
- TGI [5]: 36.7 µM
- GI50 [6]: 4.95 µM
- TGI [6]: 10.6 µM
- GI50 [7]: 1.71 µM
- TGI [7]: 3.22 µM
- GI50 [8]: 3.82 µM
- TGI [8]: 14.8 µM
- GI50 [9]: 1.82 µM
- TGI [9]: 3.85 µM
- GI50 [10]: 2.39 µM
- TGI [10]: 6.98 µM

Compound: CN(C)c1ncnc2c1nnn2C1OC(CO)C(O)C1O (stereo unspecified)
- GI50 [1]: 0.0662 µM
- TGI [1]: > 100 µM
- GI50 [2]: 0.106 µM
- TGI [2]: > 100 µM
- GI50 [3]: 2.33 µM
- TGI [3]: > 100 µM
- GI50 [4]: 0.632 µM
- TGI [4]: > 100 µM
- GI50 [5]: 4.49 µM
- TGI [5]: > 100 µM
- GI50 [6]: 0.247 µM
- TGI [6]: > 100 µM
- GI50 [7]: 0.308 µM
- TGI [7]: 2.46 µM
- GI50 [8]: 2.97 µM
- TGI [8]: > 100 µM
- GI50 [9]: 0.293 µM
- TGI [9]: > 100 µM
- GI50 [10]: 0.4 µM
- TGI [10]: > 100 µM

Compound: Cn1c(O)c(C(/C=C/c2ccccc2)=NCCN=C(/C=C/c2ccccc2)c2c(O)n(C)c(=O)n(C)c2=O)c(=O)n(C)c1=O
- GI50 [1]: 12.4 µM
- TGI [1]: > 50 µM
- GI50 [2]: 13.3 µM
- TGI [2]: > 50 µM
- GI50 [3]: 25.8 µM
- TGI [3]: > 50 µM
- GI50 [4]: 13.4 µM
- TGI [4]: 34.7 µM
- GI50 [5]: 24.6 µM
- TGI [5]: > 50 µM
- GI50 [6]: 10.1 µM
- TGI [6]: 24.6 µM
- GI50 [7]: 21 µM
- TGI [7]: > 50 µM
- GI50 [8]: 16.8 µM
- TGI [8]: > 50 µM
- GI50 [9]: 15.5 µM
- TGI [9]: 34.2 µM
- GI50 [10]: 23.3 µM
- TGI [10]: > 50 µM

Compound: COC1CCC(O)C(/C=C/[N+](=O)[O-])C1 (stereo unspecified)
- TGI [1]: > 100 µM
- TGI [2]: 15.2 µM
- TGI [3]: 15.1 µM
- TGI [4]: 17.2 µM
- TGI [5]: 5.96 µM
- TGI [6]: 7.73 µM
- TGI [7]: 22.3 µM
- TGI [8]: 21.5 µM
- TGI [9]: > 100 µM

Compound: CC(C)(C)c1[nH]cnc1/C=c1\[nH]c(=O)/c(=C/c2ccccc2)[nH]c1=O
- GI50 [1]: < 0.01 µM
- TGI [1]: > 68.4 µM
- GI50 [2]: 0.0159 µM
- TGI [2]: 31.3 µM
- GI50 [3]: 0.0482 µM
- TGI [3]: 35.5 µM
- GI50 [4]: < 0.01 µM
- TGI [4]: > 71.8 µM
- GI50 [5]: 0.0275 µM
- TGI [5]: 3.69 µM
- GI50 [6]: < 0.01 µM
- TGI [6]: 17.7 µM
- GI50 [7]: < 0.01 µM
- TGI [7]: 19.2 µM
- GI50 [8]: 0.0335 µM
- TGI [8]: 86.1 µM
- GI50 [9]: < 0.01 µM
- TGI [9]: 50.7 µM
- GI50 [10]: < 0.0144 µM
- TGI [10]: 27.6 µM

Compound: c1ccc(-c2cc(C3CO3)c3ccccc3n2)cc1 (stereo unspecified)
- TGI [1]: > 100 µM
- TGI [2]: 34.7 µM
- TGI [3]: 34.1 µM
- TGI [4]: 83.9 µM
- TGI [5]: 43.1 µM
- TGI [6]: 39.1 µM
- TGI [7]: 33.7 µM
- TGI [8]: 40.5 µM
- TGI [9]: 71.3 µM
- TGI [10]: 3.51 µM

Compound: O=C(Nc1ccc(CN2CCOCC2)cc1)c1[nH]ncc1Nc1ncnc2sccc12
- GI50 [1]: 0.337 µM
- TGI [1]: 27.7 µM
- GI50 [2]: 0.382 µM
- TGI [2]: 15.5 µM
- GI50 [3]: 0.805 µM
- TGI [3]: 4.3 µM
- GI50 [4]: 0.14 µM
- TGI [4]: 4.81 µM
- GI50 [5]: 0.163 µM
- TGI [5]: 0.63 µM
- GI50 [6]: 0.314 µM
- TGI [6]: 10.9 µM
- GI50 [7]: 0.29 µM
- TGI [7]: 2.81 µM
- GI50 [8]: 0.904 µM
- TGI [8]: > 100 µM
- GI50 [9]: 0.418 µM
- TGI [9]: > 100 µM

Compound: CN(C)c1ccc(/C=C2\N=C(c3ccc([N+](=O)[O-])cc3)OC2=O)cc1
- TGI [1]: 97.9 µM
- TGI [2]: > 100 µM
- TGI [3]: > 100 µM
- TGI [4]: > 100 µM
- TGI [5]: > 100 µM
- TGI [6]: > 100 µM
- TGI [7]: > 100 µM
- TGI [8]: > 100 µM
- TGI [9]: > 100 µM
